“Also recorded” adds a separate entry of the source.
Legend:
hPTH-2 receptors [1] = target: T1, hPTH-2 receptors (Homo sapiens, UniProt P49190); assay: cAMP accumulation in HPR2-22 cells; assay type: cell-based; settings: average level
T1 construct: expressed in transfected cells
From the text: The following cell lines were used in these studies. HKRK C53 subclones of LLC-PKI porcine renal epithelial cells which stably express human PTH-1 receptors (150,000 receptors/cell). SaOS-2 cells are transformed human osteosarcoma cells which express relatively few (10,000-20,000 per cell) human PTH-1 receptors. HPR2-7 cells are subclones of LLC-PK1 which express approximately 250,000 recombinant human PTH-2 receptors per cell. HKRK-B7 cells are subclones of LLC-PK which stably express approximately 1 million hPTH-1 receptors per cell. HPR2-22 cells are subclones of LLC-PK1 which express 1.5 million recombinant hPTH-2 receptors per cell. […]
(§1) Intracellular cAMP accumulation, PLC activation and PTHR binding affinity were measured as previously reported (Bringhurst, F. R., et al., Endocrinology 132(5):2090-2098 (1993); Guo, J., et al., Endocrinology 136(9):3884-3891 (1995)). Intracellular cAMP accumulation was measured in extracts of cells that were exposed to human PTH peptides in the presence of isobutylmethyxanthine (IBMX, 1 mM) at 37° C. for 15 min. After terminating the reactions by aspiration and freezing in liquid nitrogen, cell monolayers were extracted with 50 mM HCl and cAMP was measured using a radioimmunoassay kit (Dupont-New England Nuclear, Boston, Mass.).

hPTH-1 receptors [2] = target: T2, hPTH-1 receptors (Homo sapiens, UniProt Q03431); assay: cAMP accumulation in HKRK B28 cells; assay type: cell-based; design: expressed in transfected cells; settings: average level
T2 sequence (Q03431 27-593): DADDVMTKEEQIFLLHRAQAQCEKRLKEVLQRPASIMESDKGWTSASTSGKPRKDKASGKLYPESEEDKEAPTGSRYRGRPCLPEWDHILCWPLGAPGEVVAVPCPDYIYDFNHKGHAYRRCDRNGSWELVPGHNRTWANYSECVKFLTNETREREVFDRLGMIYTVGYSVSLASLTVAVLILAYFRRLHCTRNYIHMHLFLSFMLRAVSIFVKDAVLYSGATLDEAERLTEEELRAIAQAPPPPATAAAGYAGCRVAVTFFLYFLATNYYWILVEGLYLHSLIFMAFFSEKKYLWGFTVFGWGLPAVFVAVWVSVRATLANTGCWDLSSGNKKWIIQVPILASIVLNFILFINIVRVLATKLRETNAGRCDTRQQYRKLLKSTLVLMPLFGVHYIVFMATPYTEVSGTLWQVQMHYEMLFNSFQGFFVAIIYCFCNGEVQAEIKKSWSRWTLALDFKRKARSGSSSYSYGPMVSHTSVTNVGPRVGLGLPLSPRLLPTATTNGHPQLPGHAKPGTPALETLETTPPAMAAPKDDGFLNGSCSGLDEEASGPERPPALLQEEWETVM
Description: as §1

hPTH-2 receptors [3] = target: T1, hPTH-2 receptors; assay: radioligand competition binding to HPR2-7 cells; settings: average level
Description: (§2) Radioligand competition binding assays were performed at 2-8° C. for 6 hr using ^125I-[Nle^8,21]rat PTH-(1-34) (100,000 cpm/well) in the presence or absence of non-radioactive hPTH-(1-34) analogs. Cell layers were washed three times before solubilization for determination of cell-associated radioactivity.

hPTH-1 receptors [4] = target: T2, hPTH-1 receptors; assay: radioligand competition binding to HKRK B28 cells; design: expressed in transfected cells
Description: as §2

hPTH-1 receptors [5] = target: T2, hPTH-1 receptors; assay: IP3 formation in HKRK C53 cells; assay type: cell-based; design: expressed in transfected cells; settings: average level
From the text: (§3) The following cell lines were used in these studies. HKRK C53 subclones of LLC-PKI porcine renal epithelial cells which stably express human PTH-1 receptors (150,000 receptors/cell). SaOS-2 cells are transformed human osteosarcoma cells which express relatively few (10,000-20,000 per cell) human PTH-1 receptors. HPR2-7 cells are subclones of LLC-PK1 which express approximately 250,000 recombinant human PTH-2 receptors per cell. HKRK-B7 cells are subclones of LLC-PK which stably express approximately 1 million hPTH-1 receptors per cell. HPR2-22 cells are subclones of LLC-PK1 which express 1.5 million recombinant hPTH-2 receptors per cell. The HPR2-27 and HPR2-22 cell lines were created in the same fashion as the HKRK cells but employing instead type 2 PTH receptor cDNA using the transfection technique of (Bringhurst, F. R., et al., Endocrinology 132(5):2090-2098 (1993); Guo, J., et al., Endocrinology 136(9):3884-3891 (1995)).
PLC was activated by PTH agonists in the presence of 30 mM LiCl at 37° C. for 30 min after 16 hr of labeling with [^3H]myo-inositol (3uCi/ml) in serum-free medium containing 0.1% bovine serum albumin. The reactions were stopped by rapid aspiration and addition of cold 5% TCA. Water-soluble radiolabeled inositol trisphosphate (IP3) was isolated after ether extraction by ion-exchange chromatography (Guo, J., et al., Endocrinology 136(9):3884-3891 (1995)). […]

hPTH-2 receptors [6] = target: T1, hPTH-2 receptors; assay: cAMP measurements in clonal LLC-PK1 cells (HPR2-7); assay type: cell-based; settings: HPR2-7 cells; average level
From the text: as §3, with “HKRK-B7 cells are subclones of LLC-PK which stably express approximately 1 million hPTH-1 receptors per cell. HPR2-22 cells are subclones of LLC-PK1 which express 1.5 million recombinant hPTH-2 receptors per cell.” left out
as §1

hPTH-1 receptors [7] = target: T2, hPTH-1 receptors; assay: radioligand binding to HKRK C53 cells; design: expressed in transfected cells; settings: average level
From the text: as §3, §2

hPTH-1 receptors [8] = target: T2, hPTH-1 receptors; assay: phospholipase C (PLC) activity in HKRK-B7 cells; assay type: cell-based; design: expressed in transfected cells; settings: about 1 million hPTH-1 receptors per cell, 1000 nM (FIG. 4)
From the text: as §3
(§4) PLC was activated by PTH agonists in the presence of 30 mM LiCl at 37° C. for 30 min after 16 hr of labeling with [^3H]myo-inositol (3uCi/ml) in serum-free medium containing 0.1% bovine serum albumin. The reactions were stopped by rapid aspiration and addition of cold 5% TCA. Water-soluble radiolabeled inositol trisphosphate (IP3) was isolated after ether extraction by ion-exchange chromatography (Guo, J., et al., Endocrinology 136(9):3884-3891 (1995)). In experiments involving HEK 293 cells, cells previously transfected with human PTHR cDNA (in the pcDNA1 expression vector HKRK) using Lipofectamine (Gibco BRL) were labeled with [^3H]myo-inositol and assayed as described above, except that total water-soluble [^3H]inositol polyphosphates were collected as a single fraction from the ion-exchange columns.

hPTH-1 receptors [9] = target: T2, hPTH-1 receptors; assay: cAMP accumulation (adenylyl cyclase activation) in HKRK C53 cells; assay type: cell-based; design: expressed in transfected cells; settings: HKRK C53 cells
From the text: as §3, with “HKRK-B7 cells are subclones of LLC-PK which stably express approximately 1 million hPTH-1 receptors per cell. HPR2-22 cells are subclones of LLC-PK1 which express 1.5 million recombinant hPTH-2 receptors per cell.” left out
as §1

hPTH-1 receptors [10] = target: T2, hPTH-1 receptors; assay: AC activation in HKRK B7 cells; assay type: cell-based; design: expressed in transfected cells; settings: HKRK B7 cells (large number of human PTH-1 receptors)
From the text: as §3, §1

hPTH-1 receptors [11] = target: T2, hPTH-1 receptors; assay: PLC activation in HEK-293 cells transiently transfected with human PTHR cDNA; assay type: cell-based; design: expressed in transfected cells; host or cells: HEK-293 human embryonic kidney cells, transient transfection with Lipofectamine; settings: HEK-293 cells transiently transfected with human PTHR cDNA (data not shown)
Description: as §4

hPTH-1 receptors [12] = target: T2, hPTH-1 receptors; assay: cAMP measurements in SaOS-2 cells; assay type: cell-based; design: expressed in transfected cells; settings: SaOS-2 cells, 10,000-20,000 human PTH-1 receptors per cell; up to 1 uM (FIG. 2)
From the text: as §3, §1

hPTH-2 receptors [13] = target: T1, hPTH-2 receptors; assay: phospholipase C activation in HPR2-22 cells; assay type: cell-based; settings: 1.5 million hPTH-2 receptors per cell, 1,000 nM (FIG. 5)
From the text: as §3, §4

T1 sequence (P49190 25-550): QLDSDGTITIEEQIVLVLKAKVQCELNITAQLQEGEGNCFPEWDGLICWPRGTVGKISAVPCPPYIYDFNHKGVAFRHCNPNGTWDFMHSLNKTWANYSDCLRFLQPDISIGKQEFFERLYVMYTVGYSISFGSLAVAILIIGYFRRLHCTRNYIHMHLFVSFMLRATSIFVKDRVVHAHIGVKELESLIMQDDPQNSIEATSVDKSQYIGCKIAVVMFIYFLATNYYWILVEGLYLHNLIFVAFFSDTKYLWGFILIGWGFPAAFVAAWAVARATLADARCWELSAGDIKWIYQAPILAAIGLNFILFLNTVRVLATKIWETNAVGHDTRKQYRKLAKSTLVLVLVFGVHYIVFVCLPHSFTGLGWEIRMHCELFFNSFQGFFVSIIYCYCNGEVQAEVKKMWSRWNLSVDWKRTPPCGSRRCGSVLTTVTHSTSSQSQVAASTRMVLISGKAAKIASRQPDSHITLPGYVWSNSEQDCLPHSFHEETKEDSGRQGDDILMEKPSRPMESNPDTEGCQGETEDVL

CC[C@H](C)[C@H](NC(=O)[C@H](CCC(=O)O)NC(=O)[C@H](CO)NC(=O)[C@@H](NC(=O)[C@@H](N)CO)C(C)C)C(=O)N[C@@H](CCC(N)=O)C(=O)N[C@@H](CC(C)C)C(=O)N[C@@H](CCSC)C(=O)N[C@@H](Cc1c[nH]cn1)C(=O)N[C@@H](CC(N)=O)C(=O)N[C@@H](CC(C)C)C(=O)NCC(=O)N[C@@H](CCCCN)C(=O)N[C@@H](Cc1c[nH]cn1)C(=O)N[C@@H](CC(C)C)C(=O)N[C@@H](CC(N)=O)C(=O)N[C@@H](CO)C(=O)N[C@@H](CCSC)C(=O)N[C@@H](CCC(=O)O)C(=O)N[C@@H](CCCNC(=N)N)C(=O)N[C@H](C(=O)N[C@@H](CCC(=O)O)C(=O)N[C@@H](Cc1c[nH]c2ccccc12)C(=O)N[C@@H](CC(C)C)C(=O)N[C@@H](CCCNC(=N)N)C(=O)N[C@@H](CCCCN)C(=O)N[C@@H](CCCCN)C(=O)N[C@@H](CC(C)C)C(=O)N[C@@H](CCC(N)=O)C(=O)N[C@@H](CC(=O)O)C(=O)N[C@H](C(=O)N[C@@H](Cc1c[nH]cn1)C(=O)N[C@@H](CC(N)=O)C(=O)N[C@@H](Cc1ccccc1)C(N)=O)C(C)C)C(C)C [hPTH(1-34)NH2]
cAMP accumulation in the presence of maximal concentrations of peptide (hPTH-2 receptors [1]): 286±8 pmoles/well/15 min
cAMP accumulation in the presence of maximal concentrations of peptide (hPTH-1 receptors [2]): 337±55 pmoles/well/15 min
binding in the presence of maximal concentrations of peptide (hPTH-2 receptors [3]): 4541±386 cpm/well
binding in the presence of maximal concentrations of peptide (hPTH-1 receptors [4]; HKRK B28 cells, average level): 16,137±919 cpm/well
IP3 formation in the presence of maximal concentrations of peptide (hPTH-1 receptors [5]): 1908±251 cpm/well
cAMP accumulation in the presence of maximal concentrations of peptide (hPTH-2 receptors [6]): 133±14 pmoles/well/15 min
binding in the presence of maximal concentrations of peptide (hPTH-1 receptors [7]): 956±135 cpm/well
activation of PLC (hPTH-1 receptors [8]): fill agonists
cAMP accumulation in the presence of maximal concentrations of peptide (hPTH-1 receptors [9]; average level): 207±37 pmoles/well/15 min

hPTH(2-34): N-truncated human PTH peptide, residues 2-34 (VSEIQLMHNLGKHLNSMERVEWLRKKLQDVHNF)
activation of AC compared with hPTH-(1-34) (hPTH-1 receptors [10]): comparable in magnitude and sensitivity to that of hPTH-(1-34); also recorded: approximately equipotent
activation of PLC (hPTH-1 receptors [11]): inability
cyclase (cAMP) activity compared with control hPTH(1-34) (hPTH-1 receptors [12]): very weak agonists
activation of phospholipase C (hPTH-2 receptors [13]): only a partial agonist
competitive displacement of 125I-[Nle8,21]rPTH(1-34) radioligand binding (hPTH-1 receptors [4]; HKRK B28 cells, 280,000 human PTH-1 receptors/cell (FIG. 6)): binds as well
activation of PLC (hPTH-1 receptors [8]): did not elicit PLC activity
activation of PLC (hPTH-1 receptors [8]; listed as Human PTH(2-34)): inactive
cyclic AMP accumulation, efficacy compared with native hPTH(1-34)NH2 (hPTH-1 receptors [9]; about 150,000 hPTH-1 receptors per cell, 10^-9M and 10^-7M peptide (FIG. 1)): similarly reduced activity

Reference: patent publication US6537965B1, “Amino-terminal modified parathyroid hormone (PTH) analogs” (The General Hospital Corporation, priority 1998, dated 2003)
